Measured values as given in patent US20050209232A1, “Pyridazinone ureas as antagonists of alpha4 integrins” (priority 2004, published 2005).

Assays:
human α4β7 integrin = target: T1, human α4β7 integrin (Homo sapiens, UniProt P13612+P26010); test: α4β7-K562 Cell Adhesion Assay (α4β7 Mediated Adhesion/MAdCAM-1); format: cell-based; conditions: K562 cells expressing human α4β7 adhering to FLAG-hMAdCAM-1, 1 mM Mn2+
T1 construct: expressed in transfected cells; host or cells: K562 cells, stably transfected
T1 sequence (P13612 34-1032): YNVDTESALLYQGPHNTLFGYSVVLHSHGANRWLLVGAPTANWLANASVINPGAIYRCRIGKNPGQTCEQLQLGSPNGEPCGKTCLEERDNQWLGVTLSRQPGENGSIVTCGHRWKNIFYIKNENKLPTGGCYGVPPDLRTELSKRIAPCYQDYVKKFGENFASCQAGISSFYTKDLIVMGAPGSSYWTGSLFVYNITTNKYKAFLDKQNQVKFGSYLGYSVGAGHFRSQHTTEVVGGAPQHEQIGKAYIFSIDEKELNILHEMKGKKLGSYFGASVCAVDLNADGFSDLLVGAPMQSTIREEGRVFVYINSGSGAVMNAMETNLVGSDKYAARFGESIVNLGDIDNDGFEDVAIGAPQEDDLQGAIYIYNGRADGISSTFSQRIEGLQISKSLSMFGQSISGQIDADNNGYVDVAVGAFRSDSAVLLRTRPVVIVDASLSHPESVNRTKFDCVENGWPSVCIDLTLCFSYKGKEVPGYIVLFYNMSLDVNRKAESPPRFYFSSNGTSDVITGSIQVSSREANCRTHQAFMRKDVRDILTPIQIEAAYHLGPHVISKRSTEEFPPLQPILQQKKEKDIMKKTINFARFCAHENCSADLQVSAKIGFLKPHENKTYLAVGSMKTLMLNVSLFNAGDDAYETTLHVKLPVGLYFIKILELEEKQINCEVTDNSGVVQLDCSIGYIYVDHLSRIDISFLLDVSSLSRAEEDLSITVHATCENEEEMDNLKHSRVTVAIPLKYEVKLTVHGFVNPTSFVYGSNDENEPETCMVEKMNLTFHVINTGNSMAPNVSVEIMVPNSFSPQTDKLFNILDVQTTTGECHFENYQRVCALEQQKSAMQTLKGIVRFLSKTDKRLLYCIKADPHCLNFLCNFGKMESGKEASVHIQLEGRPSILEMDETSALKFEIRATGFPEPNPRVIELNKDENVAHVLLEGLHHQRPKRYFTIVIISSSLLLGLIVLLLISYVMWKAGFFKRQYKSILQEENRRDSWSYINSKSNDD
T1 sequence (P26010 20-798): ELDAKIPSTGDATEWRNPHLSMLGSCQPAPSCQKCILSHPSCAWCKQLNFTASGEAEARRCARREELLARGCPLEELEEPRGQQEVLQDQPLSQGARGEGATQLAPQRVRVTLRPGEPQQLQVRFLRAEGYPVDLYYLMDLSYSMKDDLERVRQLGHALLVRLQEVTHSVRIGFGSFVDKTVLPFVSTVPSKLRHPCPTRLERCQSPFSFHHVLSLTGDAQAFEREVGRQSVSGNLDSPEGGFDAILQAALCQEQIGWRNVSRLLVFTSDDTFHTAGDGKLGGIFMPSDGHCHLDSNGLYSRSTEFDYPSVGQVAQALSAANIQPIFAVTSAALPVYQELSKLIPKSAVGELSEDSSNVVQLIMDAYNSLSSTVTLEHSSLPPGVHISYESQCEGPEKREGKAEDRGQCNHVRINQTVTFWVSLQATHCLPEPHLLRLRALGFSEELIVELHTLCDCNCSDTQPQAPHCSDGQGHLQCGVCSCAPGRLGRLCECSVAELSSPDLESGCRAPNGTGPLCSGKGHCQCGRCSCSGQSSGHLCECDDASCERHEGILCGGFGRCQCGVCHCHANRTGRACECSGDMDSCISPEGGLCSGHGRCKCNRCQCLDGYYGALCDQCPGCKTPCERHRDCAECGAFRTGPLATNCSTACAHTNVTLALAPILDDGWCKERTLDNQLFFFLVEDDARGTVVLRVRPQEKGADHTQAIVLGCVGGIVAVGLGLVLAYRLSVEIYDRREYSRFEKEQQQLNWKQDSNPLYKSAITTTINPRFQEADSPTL
Method: α4β7-K562 Cell Adhesion Assay (α4β7 Mediated Adhesion/MAdCAM-1)
M2 anti-FLAG Antibody Coated 96-well plates (Sigma) were coated for 1 hour at 4° C. with 2-8 μL/well recombinant FLAG-hMAdCAM-1 contained in 100 μL of Dulbecco's PBS, pH 7.4, with 1% BSA and 1 mM Mn^2+ (PBS-BSA-Mn). Plates were washed once with PBS-BSA-Mn. Buffer was removed and compounds to be tested (50 μL) were added at 2× concentration. Stably transfected K562 cells expressing human α4β7 integrin, (50 μL at 2×10^6/mL) that had been labeled with 100 μg/mL carboxymethyl fluorescein diacetate succinimidyl ester (CFDA-SE; Molecular Probes) for 15 min at 37° C. were added to each well and allowed to adhere for 1 h at room temperature. Plates were washed 4× in PBS-BSA-Mn and then cells were lysed for 2 min by addtion of 100 μL of PBS without Ca^2+, Mg^2+ supplemented with 0.1 M NaOH. The plate was read on a 96-well fluorescent plate reader at 485 nm excitation and 530 nm emission.

α4β1 = target: T2, α4β1 (Homo sapiens, UniProt P05556+P13612); test: Ramos Cell Adhesion Assay (α4β1 Mediated Adhesion/VCAM-1); format: cell-based; conditions: Ramos cells adhering to recombinant hVCAM-1
T2 construct: Ramos cells, (50 μL at 2×10^6/mL) labeled with 5 μM Calcein AM; endogenous in cells; host or cells: Ramos cells
Method: Ramos Cell Adhesion Assay (α4β1 Mediated Adhesion/VCAM-1)
Immulon 96 well plates (Dynex) were coated with 100 μL recombinant hVCAM-1 at 4.0 μg/mL in 0.05 M NaCO3 buffer pH 9.0 overnight at 4° C. (R&D Systems). Plates were washed 2 times in PBS with 1% BSA and blocked for 1 h@room temperature in this buffer. PBS was removed and compounds to be tested (50 μL) were added at 2× concentration. Ramos cells, (50 μL at 2×10^6/mL) labeled with 5 μM Calcein AM (Molecular Probes) for 1 h at 37° C., were added to each well and allowed to adhere for 1 h at room temperature. Plates were washed 4 × in PBS+1% BSA and cells were lysed for 15 minutes in 100 μL of 1 M Tris pH 8.0 with 1% SDS. The plate was read at 485 nm excitation and 530 nm emission.

T2 sequence (P05556 21-798, one chain of several): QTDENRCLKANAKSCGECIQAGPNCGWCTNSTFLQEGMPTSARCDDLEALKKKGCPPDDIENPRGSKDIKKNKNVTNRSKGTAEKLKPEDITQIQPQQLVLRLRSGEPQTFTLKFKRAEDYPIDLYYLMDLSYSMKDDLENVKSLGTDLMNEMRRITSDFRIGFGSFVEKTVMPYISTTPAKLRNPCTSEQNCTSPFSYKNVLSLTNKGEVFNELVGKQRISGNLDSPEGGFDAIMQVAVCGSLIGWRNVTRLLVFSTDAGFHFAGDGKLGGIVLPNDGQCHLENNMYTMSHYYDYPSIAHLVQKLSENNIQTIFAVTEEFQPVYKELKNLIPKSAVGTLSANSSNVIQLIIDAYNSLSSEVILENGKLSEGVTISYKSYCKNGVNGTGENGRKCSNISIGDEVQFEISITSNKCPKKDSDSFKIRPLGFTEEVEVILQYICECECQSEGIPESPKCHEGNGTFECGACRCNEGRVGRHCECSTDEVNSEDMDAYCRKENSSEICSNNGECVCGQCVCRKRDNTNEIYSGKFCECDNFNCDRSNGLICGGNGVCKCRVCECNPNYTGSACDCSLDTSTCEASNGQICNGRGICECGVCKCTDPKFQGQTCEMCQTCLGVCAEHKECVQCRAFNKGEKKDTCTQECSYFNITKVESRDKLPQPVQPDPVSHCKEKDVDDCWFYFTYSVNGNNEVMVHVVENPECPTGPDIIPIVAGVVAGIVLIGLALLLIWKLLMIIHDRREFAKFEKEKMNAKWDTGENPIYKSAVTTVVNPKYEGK

IC50 (human α4β7 integrin)	IC50 (α4β1)	SMILES
380 nM	> 5000 nM	COc1cnn(C)c(=O)c1-c1ccc(C[C@H](NC(=O)N2CCC(O)C2)C(=O)O)cc1 (mixture of isomers) [Cpd 6]
29 nM	1800 nM	COc1cnn(C)c(=O)c1-c1ccc(C[C@H](NC(=O)N2CCCCC2C)C(=O)O)cc1 (mixture of isomers) [Cpd 28]
390 nM	> 5000 nM	COc1cnn(C)c(=O)c1-c1ccc(C[C@H](NC(=O)N2c3ccccc3CC2C)C(=O)O)cc1 (mixture of isomers) [Cpd 49]
128 nM	> 5000 nM	COc1cnn(C)c(=O)c1-c1ccc(C[C@H](NC(=O)N2c3ccc(F)cc3CCC2C)C(=O)O)cc1 (mixture of isomers) [Cpd 53]
124 nM	> 1000 nM	COc1cnn(C)c(=O)c1-c1ccc(C[C@H](NC(=O)N(C(C)C)C(C)C)C(=O)O)cc1 [Cpd 1, 2-(3,3-Diisopropyl-ureido)-3-[4-(5-methoxy-2-methyl-3-oxo-2,3-dihydro-pyridazin-4-yl)-phenyl]-propionic acid]
28 nM	2870 nM	COc1cnn(CCO)c(=O)c1-c1ccc(C[C@H](NC(=O)Nc2c(Cl)cccc2Cl)C(=O)O)cc1 [Cpd 2]
311 nM	> 5000 nM	COc1cnn(CCO)c(=O)c1-c1ccc(C[C@H](NC(=O)NC2CCCCC2)C(=O)O)cc1 [Cpd 3]
2780 nM	> 5000 nM	COc1cnn(CCO)c(=O)c1-c1ccc(C[C@H](NC(=O)Nc2ccccc2F)C(=O)O)cc1 [Cpd 4]
469 nM	> 5000 nM	COc1cnn(C)c(=O)c1-c1ccc(C[C@H](NC(=O)N2CCN(C)CC2)C(=O)O)cc1 [Cpd 5]
789 nM	> 5000 nM	COc1cnn(C)c(=O)c1-c1ccc(C[C@H](NC(=O)NCCO)C(=O)O)cc1 [Cpd 7]
341 nM	> 5000 nM	COc1cnn(C)c(=O)c1-c1ccc(CC(NC(=O)N2CCCC2CO)C(=O)O)cc1 (centres unmarked) [Cpd 8, 2-[(2-Hydroxymethyl-pyrrolidine-1-carbonyl)-amino]-3-[4-(5-methoxy-2-methyl-3-oxo-2,3-dihydro-pyridazin-4-yl)-phenyl]-propionic acid]
370 nM	> 5000 nM	COc1cnn(C)c(=O)c1-c1ccc(C[C@H](NC(=O)NCc2ccccc2)C(=O)O)cc1 [Cpd 9]
63 nM	> 5000 nM	COc1cnn(C)c(=O)c1-c1ccc(C[C@H](NC(=O)N(C)c2ccccc2)C(=O)O)cc1 [Cpd 10]
53 nM	> 5000 nM	COc1cnn(C)c(=O)c1-c1ccc(C[C@H](NC(=O)N(C)C2CCCCC2)C(=O)O)cc1 [Cpd 11]
601 nM	> 5000 nM	COc1cnn(C)c(=O)c1-c1ccc(C[C@H](NC(=O)N(C)Cc2ccccc2)C(=O)O)cc1 [Cpd 12]
94 nM	> 5000 nM	COc1cnn(C)c(=O)c1-c1ccc(C[C@H](NC(=O)N(C)CCO)C(=O)O)cc1 [Cpd 14]
310 nM	> 5000 nM	COc1cnn(C)c(=O)c1-c1ccc(C[C@H](NC(=O)N(CCO)Cc2ccccc2)C(=O)O)cc1 [Cpd 15]

IC50 (human α4β7 integrin)	IC50 (α4β1)	SMILES
69 nM	> 5000 nM	COc1cnn(C)c(=O)c1-c1ccc(C[C@H](NC(=O)N(CCO)c2ccccc2)C(=O)O)cc1 [Cpd 16]
282 nM	> 5000 nM	COc1cnn(C)c(=O)c1-c1ccc(C[C@H](NC(=O)N(CCO)C2CCCCC2)C(=O)O)cc1 [Cpd 17]
395 nM	2650 nM	COc1cnn(C)c(=O)c1-c1ccc(C[C@H](NC(=O)N(Cc2ccccc2)CC(C)C)C(=O)O)cc1 [Cpd 18]
1550 nM	–	COc1cnn(C)c(=O)c1-c1ccc(C[C@H](NC(=O)N(C)C)C(=O)O)cc1 [Cpd 19]
497 nM	–	COc1cnn(C)c(=O)c1-c1ccc(C[C@H](NC(=O)NC2CCCCC2)C(=O)O)cc1 [Cpd 20]
135 nM	> 5000 nM	COc1cnn(C)c(=O)c1-c1ccc(C[C@H](NC(=O)N(C2CC2)C2CCN(C)CC2)C(=O)O)cc1 [Cpd 22]
183 nM	> 5000 nM	COc1cnn(C)c(=O)c1-c1ccc(C[C@H](NC(=O)N[C@H]2CC3CCC2C3)C(=O)O)cc1 (some centres unmarked) [Cpd 23]
391 nM	> 5000 nM	COc1cnn(C)c(=O)c1-c1ccc(C[C@H](NC(=O)N2CCN(c3ncc(C(F)(F)F)cc3Cl)CC2)C(=O)O)cc1 [Cpd 24]
2020 nM	> 5000 nM	COc1cnn(C)c(=O)c1-c1ccc(C[C@H](NC(=O)N2CCN(C3C4CC5CC(C4)CC3C5)CC2)C(=O)O)cc1 (some centres unmarked) [Cpd 25]
598 nM	> 5000 nM	COc1cnn(C)c(=O)c1-c1ccc(C[C@H](NC(=O)N(O)C2CCCCC2)C(=O)O)cc1 [Cpd 26]
218 nM	> 5000 nM	COc1cnn(C)c(=O)c1-c1ccc(C[C@H](NC(=O)N(Cc2ccccc2)C(C)C)C(=O)O)cc1 [Cpd 27]
694 nM	> 5000 nM	COc1cnn(C)c(=O)c1-c1ccc(C[C@H](NC(=O)N(C)Cc2cnn(-c3ccccc3)c2)C(=O)O)cc1 [Cpd 29]
156 nM	> 5000 nM	COc1cnn(C)c(=O)c1-c1ccc(C[C@H](NC(=O)N2CCCN(c3nc4ccccc4o3)CC2)C(=O)O)cc1 [Cpd 30]
414 nM	> 5000 nM	CC#CCN(Cc1ccco1)C(=O)N[C@@H](Cc1ccc(-c2c(OC)cnn(C)c2=O)cc1)C(=O)O [Cpd 31]
428 nM	> 5000 nM	COc1cccc2c1OCCCN(C(=O)N[C@@H](Cc1ccc(-c3c(OC)cnn(C)c3=O)cc1)C(=O)O)C2 [Cpd 32]
354 nM	–	CCCN(C(=O)N[C@@H](Cc1ccc(-c2c(OC)cnn(C)c2=O)cc1)C(=O)O)c1ccccc1 [Cpd 50]

SMILES	IC50 (human α4β7 integrin)	IC50 (α4β1)
COc1cnn(C)c(=O)c1-c1ccc(C[C@H](NC(=O)N(Cc2cccnc2)C2CN3CCC2CC3)C(=O)O)cc1 (mixture of isomers) [Cpd 40]	1010 nM	> 5000 nM
